According to patent publication US5328985A, “Recombinant streptavidin-protein chimeras useful for conjugation of molecules in the immune system” (priority 1991, dated 1994):

System: recombinant streptavidin-Protein A chimeric protein encoded in pTSAPA-2 (streptavidin residues 16-133 fused to Protein A regions E and D; 31.4 kDa subunit …)
Experiment: Determination of biotin-binding ability by gel filtration with D-[carbonyl-14C]biotin
Details: purified chimeric protein, subunit 31.4 kDa; room temperature, TBS; Sephadex G-25 gel filtration
Experimental: Biotin-binding ability was determined by gel filtration according to Methods Enzymol., 18A:424 (1970) using a Sephadex G-25 desalting column (PD-10; 0.76×5.0 cm, Pharmacia-LKB) and D-[carbonyl-^14 C]biotin (52 mCi/mmol, Amersham). The binding of the chimeric protein to biotin was done at room temperature in TBS containing 0.02% NAN3, and the same solution was used as the eluent.

Question: Which “biotin-binding ability: molecules of biotin bound per subunit” value does the source give for O=C(O)CCCC[C@@H]1SC[C@@H]2NC(=O)N[C@@H]21 [biotin, D-biotin] here?
Answer: more than 0.96 molecules of biotin per subunit
